According to patent US20110011310A1, “METHOD OF MANUFACTURING A COMPOSITE BASED ON COMPLEXES OF CONTROLLED STABILITY” (UNIVERSITE DE NICE SOPHIA-ANTIPOLIS, priority 2007, published 2011):

Assay: Thermogravimetry of the temperature of decomposition of indigo (FIGS. 3 and 6)
Format: physicochemical
Method: […] This peak is offset to around 540° C. when the mixture has been heated at 18 (unheated), 120, 180, 280 and 350° C. during production of the composite.
In addition, during the step of cleaning by heating at temperatures of 18 (unheated), 180, 280 and 320° C. for 20 minutes, a peak characteristic of the presence of indigo in the external medium is observed, as these molecules begin to decompose at 280° C. with a maximum rate at 340° C. This phenomenon is possible owing to surface interactions between the indigo and the sepiolite, which reduce the temperature of decomposition of the indigo, which in a pure product begins at 300° C. with a maximum at 390° C. However, this peak disappears after the cleaning by heating at 350° C. for 20 minutes. […] Also, at 520° C., a peak characteristic of the presence of indigo in the sepiolite tunnels is observed. This cleaning by heating step in this type of preparation enables only the molecules present in the tunnels to be preserved.

Structure (SMILES): O=C1/C(=C2\Nc3ccccc3C2=O)Nc2ccccc21 [indigo]
- temperature of maximum rate of decomposition of indigo (indigo in the external medium of 23% indigo/sepiolite mixtures): 340 °C
- temperature at which decomposition of indigo begins (indigo in the external medium of 23% indigo/sepiolite mixtures (surface interactions with sepiolite)): 280 °C
- temperature of the thermogravimetric peak of indigo (indigo in the sepiolite tunnels of 23% indigo/sepiolite mixtures (FIG. 6)): around 520 °C
- maximum temperature of decomposition of indigo (indigo incorporated in the sepiolite tunnels (FIG. 3)): 540 °C
- maximum temperature of decomposition of indigo (native indigo (FIG. 3)): around 375 °C
- temperature at which decomposition of indigo begins (pure product): 300 °C
- temperature of maximum decomposition of indigo (pure product): 390 °C
